91 compounds from PubChem BioAssay AID489041 (Sanford-Burnham Center for Chemical Genomics, 2010) can be followed below.

Active and inactive are the calls of the source. How the calls were made is not given here.

This experiment concerns HEK-293T NF-kB luciferase reporter counterscreen, luminescence. In words: inhibitors of HEK-293T NF-kB luciferase – HEK-293T cells, luminescence, counter-screen for T-cell antigen receptor NF-kB inhibitors, dose response (AID 489041). In general terms: The purpose of a counterscreen is to sort out artefacts and off-target activity.
For the compound `CCCCc1ccc(NC(=O)C(=O)NCCN2CCN(Cc3ccc([N+](=O)[O-])cc3)CC2)cc1`, the half-inhibitory concentration (IC50) (usually the point on the concentration scale where inhibition reaches its midpoint) was 0.4 µM.

As for `COc1ccccc1C1=NOC(COc2ccc3c(C)cc(=O)oc3c2)C1` (stereo unspecified), the half-inhibitory concentration (IC50) was 4.89 µM.

`C[C@]12CCC3C(CCC4=CC(O)CC[C@@]43/C=N/O)C1(O)CCC2C1=CC(=O)OC1` (stereo partly specified): the IC50 is 0.33 µM.

In the case of `CCCc1cc(C(=O)Nc2cc(C)ccc2O)no1`, the IC50 is > 80 µM (inactive).

`Cc1cccc(N2CCN(C(=O)c3ccc(S(=O)(=O)N(C)c4ccccc4)cc3)CC2)c1C`: the IC50 is 10.5 µM.

As for `COc1ccc(N/N=C/c2c(C(=O)O)ccc3ccccc23)cc1`, the IC50 was 15.8 µM.

Regarding `CCCOC(=O)c1[nH]c2c(c1C)C(=O)CC(c1cccs1)C2` (stereo unspecified), the concentration for half-maximal inhibition (IC50) was 15.2 µM.

Consider `CN[C@H]1CCc2cc(OC)c(OC)c(OC)c2-c2ccc(OC)c(=O)cc21`, for which the IC50 was below 0.16 µM.

On to `O=S(=O)(C/C(=C/CO)S(=O)(=O)c1ccccc1)c1ccccc1`, for which the IC50 is 6.81 µM.

In the case of `CCOCCOC(=O)c1[nH]c2c(c1C)C(=O)CC(c1cccs1)C2` (stereo unspecified), the IC50 was 4.6 µM.

With `COc1cc(C2C3=C(Nc4ncnn42)c2ccccc2CC3)cc(OC)c1OC` (stereo unspecified), the 50% inhibitory concentration (IC50) is 0.83 µM.

Regarding `Cc1cc(C)cc(NC(=O)c2cc(C)n(Cc3cccs3)c2C)c1`, the IC50 is > 80 µM (inactive).

Turning to `CCc1c(C)nc2ncnn2c1NCCc1ccc(OC)cc1`, the IC50 was 3.03 µM.

Take `Cc1ccc(Oc2ccc(OCC(=O)Nc3ccncc3)cc2)cc1`: the IC50 was 0.62 µM.

As for `Cc1nnc(N/N=C/c2ccccn2)[nH]c1=O`, the IC50 was > 80 µM (inactive).

On to `Cn1ncnc2c(=O)n(C)c(=O)nc1-2`, for which the IC50 was 1.11 µM.

Regarding `COC(=O)c1ccccc1NC(=O)CSc1nc(-c2ccco2)cc(C(F)(F)F)n1`, the IC50 was 7.95 µM.

On to `COc1cc(/C=C/c2ccc3cccc(O)c3n2)cc(OC)c1OC`, for which the IC50 was > 80 µM (inactive).

As to `CCOc1ccc2c(c1)sc(N)[n+]2Cc1cc(C)cc2cccnc12`, the concentration for half-maximal inhibition (IC50) was 7.7 µM.

On to `COc1cccc(CN(C)C(=O)c2ccc(OCC(=O)Nc3cccc(C(F)(F)F)c3)c(OC)c2)c1`, for which the half-inhibitory concentration (IC50) is 1.88 µM.

For `COc1ccc(CNC(=O)c2c(C)oc3c2C(=O)c2ccccc2C3=O)cc1`, the IC50 is 2.15 µM.

Turning to `Cc1ccsc1/C=N/NC(=O)c1cc(-c2ccncc2)nc2ccccc12`, the IC50 is 2.94 µM.

Consider `O=[N+]([O-])c1ccc(O)c(/C=N/Nc2ccc(Cl)nn2)c1`, for which the IC50 was > 80 µM (inactive).

As for `Cc1ccc(S(=O)(=O)NCc2ccncc2)cc1C`, the concentration for half-maximal inhibition (IC50) is 15.5 µM.

Regarding `CCOC(=O)N=Nc1c2ccccc2c2nc3no[nH]c3nc12`, the IC50 is 0.52 µM.

Take `COc1cc(NCCCCCCCN)c2ncccc2c1`: the IC50 was 11.8 µM.

As for `O=S1(=O)C=C(Sc2nc3ccccc3s2)c2ccccc21`, the half-maximal inhibitory concentration (IC50) is 5.57 µM.

In the case of `COc1ccc(Nc2nc3cc(C)ccc3cc2C#N)c(OC)c1`, the IC50 is > 80 µM (inactive).

For the compound `CCCC(=O)NC(c1ccc(N(C)C)cc1)c1ccc2cccnc2c1O` (stereo unspecified), the IC50 was > 80 µM (inactive).

For `COc1ccccc1NC(=O)c1cnc(Nc2ccccc2OC)c2ccccc12`, the IC50 was > 80 µM (inactive).

`Cn1cc(C(=O)N/N=C/c2c(O)ccc3ccccc23)ccc1=O`: the IC50 is > 80 µM (inactive).

`CC(C)Nc1ccc(C(CC(N)=O)NC(=O)c2ccc(Br)cc2)cc1[N+](=O)[O-]` (stereo unspecified): the IC50 is > 80 µM (inactive).

As to `COc1ccc(CC(=O)Nc2cccc(-c3nnc(-c4cccc(C)c4)o3)c2)cc1OC`, the IC50 is 1.24 µM.

Turning to `Cc1nc(Nc2nc3c(c(=O)[nH]2)CCC3)nc2ccccc12`, the IC50 is 40.1 µM (inactive).

Consider `Cc1ccc2c(c1)sc(-c1ccc(N(C)C)cc1)[n+]2C`, for which the IC50 was 0.87 µM.

Consider `N/C(=N\OCc1ccc([N+](=O)[O-])cc1)c1ccccn1`, for which the half-maximal inhibitory concentration (IC50) is 1.78 µM.

Consider `CCc1cc2c(=O)nc3n(c2s1)Cc1ccccc1/C3=C(/O)c1cccc([N+](=O)[O-])c1`, for which the IC50 was > 80 µM (inactive).

For `COc1ccc(-n2nnnc2-c2ccccc2)cc1`, the IC50 was > 80 µM (inactive).

As to `O=C(Cc1ccc(-c2ccccc2)cc1)NCc1ccccc1`, the IC50 was below 0.16 µM.

With `Oc1ccccc1N=Nc1nc(-c2ccccc2)c(-c2ccccc2)[nH]1`, the IC50 was 2.84 µM.

`COc1cc2nc(CN3CC=C(c4ccccc4)CC3)[nH]c(=O)c2cc1OC`: the concentration for half-maximal inhibition (IC50) is 2.5 µM.

`CCCSc1nnc(Sc2nnnn2-c2ccccc2)s1`: the concentration for half-maximal inhibition (IC50) was 9.43 µM.

With `CCCC1=Nc2cc(C(=O)NCCCOCC)ccc2Sc2ccccc21`, the IC50 was 0.97 µM.

On to `COc1ccc2nc(C)cc(N/N=C/c3ccc(F)cc3)c2c1`, for which the IC50 is 22.4 µM (inactive).

As for `O=C(Nc1ccc(Oc2cccnc2)nc1)c1ccc(C(F)(F)F)cc1`, the IC50 is 1.52 µM.

On to `COc1ccccc1CNS(=O)(=O)c1ccc(-c2cc(C)no2)cc1`, for which the IC50 is 8.48 µM.

As for `Cc1nc(SCC(=O)Nc2nc3ccccc3s2)c(C#N)c(C)c1C`, the half-inhibitory concentration (IC50) was below 0.16 µM.

With `Cn1c(SC2=CS(=O)(=O)c3ccccc32)nc2ccccc21`, the 50% inhibitory concentration (IC50) is 12.2 µM.

On to `C/C(=N\NC(=O)c1ccc(Cl)c(Cl)c1)c1ccccn1`, for which the IC50 is > 80 µM (inactive).

As to `CCCC[C@@H](C)C[C@@H](C)C(=O)N(C)[C@@H](CC(C)C)C(=O)N[C@H](C(=O)N(C)[C@H](C(=O)N1C[C@@H](O)C[C@H]1C(=O)N1C(=O)C=C[C@@H]1C)C(C)C)C(C)OC(C)=O` (stereo partly specified), the IC50 is below 0.16 µM.

In the case of `CCCCCCCCCn1c2c(c(=N)c3c1CCC3)CCC2`, the IC50 was 0.98 µM.

On to `Cc1ccc(O)c(NC(=O)c2cc(-c3ccccc3)on2)c1`, for which the IC50 is > 80 µM (inactive).

As for `COc1ccc(-n2nnnc2-c2cccc(OC)c2)cc1`, the IC50 is 19.7 µM.

In the case of `COc1ccc(/C=c2/sc3n(c2=O)C(c2ccccc2OC)C2=C(N=3)c3ccccc3CC2)cc1O` (stereo unspecified), the IC50 is > 80 µM (inactive).

Turning to `Cc1ncoc1C(=O)NC1CCCc2c1cnn2-c1ccc(C(C)(C)C)cc1` (stereo unspecified), the half-inhibitory concentration (IC50) was 3.41 µM.

As for `C=CCn1c(C)cc(C2=NNC(=NCC)SC2)c1C`, the IC50 was 1.43 µM.

Turning to `CCO[C@H]1OC(C(=O)NCc2nc3ccccc3[nH]2)=C[C@@H](C2CC2)[C@@H]1CCCO`, the IC50 is 41.1 µM (inactive).

Consider `CCOC(=O)COc1cccc2c(=O)n(CC(=O)NCc3ccc(F)cc3)ccc12`, for which the IC50 was below 0.16 µM.

As to `O=C(Nc1ccccc1Cl)/C(Cl)=C(\Cl)S(=O)c1ccccc1` (stereo unspecified), the IC50 was 9.87 µM.

With `Cc1ccc(S(=O)(=O)/N=C2\C=C(Nc3ccc(O)cc3)C(=O)c3ccccc32)cc1`, the half-maximal inhibitory concentration (IC50) is 0.78 µM.

In the case of `COC(=O)c1cnc(Oc2ccc(NC(=O)NC(=O)c3c(F)cccc3Cl)cc2)cc1C(F)(F)F`, the IC50 is 25.8 µM (inactive).

For `CCOC(=O)c1[nH]c(C)c(C(=O)Nc2cc(Cl)ccc2C)c1C`, the IC50 was 4.39 µM.

On to `Cc1cc(/C=C2\Sc3ccccc3N2C)cc(C)[n+]1CC1CCCO1` (stereo unspecified), for which the IC50 is 3.74 µM.

As to `COc1ccc(C2=Nn3c([n+](C)c4ccccc43)SC2)cc1`, the 50% inhibitory concentration (IC50) was 2.63 µM.

As to `Cc1ccc(O)c(N=Nc2nccs2)c1`, the IC50 is > 80 µM (inactive).

Regarding `O=C(Nc1ccc(S(=O)(=O)N2CCCC2)cc1)c1ccc(CN2CCc3ccccc3C2)cc1`, the half-maximal inhibitory concentration (IC50) was 0.73 µM.

On to `O=c1cc(-c2ccccc2)[nH]c2cc(Cl)ccc12`, for which the IC50 is 19.1 µM.

Turning to `CC(=O)O[C@H]1C(=O)[C@@]2(C)C([C@H](OC(=O)c3ccccc3)[C@]3(O)C[C@H](OC(=O)[C@H](O)[C@@H](NC(=O)Cc4ccccc4)c4ccccc4)C(C)=C1C3(C)C)[C@]1(OC(C)=O)CO[C@@H]1C[C@@H]2O` (stereo partly specified), the IC50 is 45.6 µM (inactive).

`CCCCCCCCCCCCCCCC[n+]1ccc(C(N)=O)cc1`: the IC50 was 46.7 µM (inactive).

For the compound `O=C(Nc1ccc(S(=O)(=O)N2CCOCC2)cc1)c1ccc(CN2CCc3ccccc3C2)cc1`, the IC50 is 1.29 µM.

For the compound `O=C(NC(Nc1nc2ccc([N+](=O)[O-])cc2s1)(C(F)(F)F)C(F)(F)F)c1ccccc1`, the IC50 was > 80 µM (inactive).

On to `CCOc1ccc(N(C)S(=O)(=O)c2ccc(-c3cc(C)no3)s2)cc1`, for which the IC50 is 7.17 µM.

Turning to `O=C(Nc1nc(-c2ccccc2)cs1)c1ccc(N2CCOCC2)c([N+](=O)[O-])c1`, the IC50 is 1.1 µM.

For `CC(C)Nc1ccc(C(CC(N)=O)NC(=O)Cc2ccc(Br)cc2)cc1[N+](=O)[O-]` (stereo unspecified), the IC50 was 68.8 µM (inactive).

Turning to `Clc1ccc2c(c1)C(C1=NCCN1)c1ccccc1CS2` (stereo unspecified), the IC50 was > 80 µM (inactive).

As for `O=C(N/N=C\c1c(O)ccc2ccccc12)c1cncc(Br)c1`, the half-maximal inhibitory concentration (IC50) was 11.2 µM.

`C/C=C(\C)C(=O)N[C@@H](c1ccccc1)[C@@H](O)C(=O)O[C@H]1C[C@@]2(O)[C@@H](OC(=O)c3ccccc3)C3[C@](C)(C(=O)[C@H](OC(C)=O)C(=C1C)C2(C)C)[C@@H](O)C[C@H]1OC[C@@]31OC(C)=O` (stereo partly specified): the IC50 was > 80 µM (inactive).

`O=C(Nc1nc2ccc(S(=O)(=O)N3CCCC3)cc2s1)C1CCCCC1`: the 50% inhibitory concentration (IC50) was 2.8 µM.

`COCCCNC(=O)C(=O)Nc1ccc2c(c1)N(S(=O)(=O)c1cccs1)CCC2`: the 50% inhibitory concentration (IC50) was 11.7 µM.

On to `Cc1cc(NC(=O)COC(=O)c2ccc(S(=O)(=O)N3CCCc4ccccc43)cc2)no1`, for which the IC50 is 28.3 µM (inactive).

For `CCOC(=O)C(C)Oc1cccc2c(=O)n(CC(=O)NCc3ccccc3)ccc12` (stereo unspecified), the IC50 was 0.78 µM.

On to `COC(=O)Cc1[nH]n(-c2nc3ccccc3s2)c(=O)c1C(C)=Nc1ccc(OC)cc1`, for which the IC50 was below 0.16 µM.

As to `CC(C)n1c(CN(C)Cc2ccccc2)nc2c1c(=O)n(C)c(=O)n2C`, the 50% inhibitory concentration (IC50) is 2.88 µM.

Regarding `Cc1ccnc2c1ccc1c(C)ccnc12`, the IC50 was > 80 µM (inactive).

Regarding `O=C(Nc1ccc(CSc2ccccc2)cc1)c1ccc(CN2CCOCC2)cc1`, the IC50 was 0.34 µM.

In the case of `COc1cc(-c2noc(C)c2/C=C/c2cccc([N+](=O)[O-])c2)cc(OC)c1OC`, the IC50 was 9.59 µM.

Take `CCCCOc1ccccc1C1CC(=O)NC2=C1C(=O)CCC2` (stereo unspecified): the concentration for half-maximal inhibition (IC50) is 12.8 µM.

Turning to `Cc1noc(C)c1COc1cccc(C(=O)OCC(=O)N2CC(=O)Nc3ccccc32)c1`, the IC50 is 24.9 µM (inactive).

With `Cc1ccc(C(=O)O/N=C(\N)c2ccccn2)c(C)c1`, the IC50 is 0.53 µM.

With `Brc1ccc2c(c1)C(C1=NCCN1)c1ccccc1CS2` (stereo unspecified), the IC50 is > 80 µM (inactive).

Regarding `N#Cc1ccc(-c2cccs2)nc1SCc1cccnc1`, the IC50 is 0.94 µM.
